# Experimental data reported in publication PMC10788528 (The Journal of Biological Chemistry, 2023).
# Several values for one entry are separate records, joined by “and”; a condition that tells them apart may be missing. Equal values may be shown once. Entries after “also recorded” stand apart in the source; their conditions may differ. Read-outs that look alike come from different tables or passages of the source.
# Experiments:
# [1] = test system: juvenile worms; details: ref 7 (PZQ); 12 ((S)-MCLZ); cited from earlier work
# [2] = test system: S. mansoni and S. haematobium infections; details: cited from earlier work
# [3] = target: T1, Sm.TRPMMCLZ (Schistosoma mansoni, UniProt A0A5K4FCC0); test: Ca2+ reporter assay; format: cell-based; details: for Activator screen at Sm.TRPMMCLZ: 10 μM; for Antagonism of (S)-MCLZ (1 μM) action at Sm.TRPMMCLZ: 100 μM, preincubation 5 min
# T1 sequence (A0A5K4FCC0 1-1380): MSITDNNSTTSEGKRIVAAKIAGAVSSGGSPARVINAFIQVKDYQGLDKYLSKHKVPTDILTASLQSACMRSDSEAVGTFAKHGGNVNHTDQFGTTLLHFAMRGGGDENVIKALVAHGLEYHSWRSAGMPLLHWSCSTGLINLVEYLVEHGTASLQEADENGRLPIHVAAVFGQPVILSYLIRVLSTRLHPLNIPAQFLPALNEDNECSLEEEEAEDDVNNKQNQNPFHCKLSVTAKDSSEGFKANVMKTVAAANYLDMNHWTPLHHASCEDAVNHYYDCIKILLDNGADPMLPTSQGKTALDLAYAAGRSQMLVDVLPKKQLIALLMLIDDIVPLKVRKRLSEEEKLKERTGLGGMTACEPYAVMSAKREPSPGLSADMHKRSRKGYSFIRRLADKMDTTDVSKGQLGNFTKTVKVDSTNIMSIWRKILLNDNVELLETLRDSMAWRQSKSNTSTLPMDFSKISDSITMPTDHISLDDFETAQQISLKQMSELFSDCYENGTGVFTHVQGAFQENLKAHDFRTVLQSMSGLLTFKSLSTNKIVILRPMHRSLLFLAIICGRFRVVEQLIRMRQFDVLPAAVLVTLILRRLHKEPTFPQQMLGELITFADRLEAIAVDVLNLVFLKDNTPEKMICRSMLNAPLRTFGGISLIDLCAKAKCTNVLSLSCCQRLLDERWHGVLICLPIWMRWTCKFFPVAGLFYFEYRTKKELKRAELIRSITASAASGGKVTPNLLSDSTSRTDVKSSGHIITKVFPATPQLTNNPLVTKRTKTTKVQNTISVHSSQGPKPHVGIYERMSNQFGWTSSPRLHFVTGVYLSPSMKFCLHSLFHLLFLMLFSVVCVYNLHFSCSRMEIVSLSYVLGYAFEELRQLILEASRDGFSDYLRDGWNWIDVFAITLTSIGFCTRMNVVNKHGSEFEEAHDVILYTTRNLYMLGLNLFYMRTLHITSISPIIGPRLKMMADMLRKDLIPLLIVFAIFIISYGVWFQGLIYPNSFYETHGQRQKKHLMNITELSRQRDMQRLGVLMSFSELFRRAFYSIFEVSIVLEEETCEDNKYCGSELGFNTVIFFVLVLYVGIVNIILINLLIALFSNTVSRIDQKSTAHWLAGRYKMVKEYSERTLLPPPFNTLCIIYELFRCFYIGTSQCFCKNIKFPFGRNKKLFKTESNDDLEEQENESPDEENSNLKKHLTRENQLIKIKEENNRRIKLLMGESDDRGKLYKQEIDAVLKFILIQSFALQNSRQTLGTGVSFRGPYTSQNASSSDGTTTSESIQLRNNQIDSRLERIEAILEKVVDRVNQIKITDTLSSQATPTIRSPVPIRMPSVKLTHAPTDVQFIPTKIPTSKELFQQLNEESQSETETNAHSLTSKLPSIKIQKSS
# [4] = test system: Sm.TRPM[R943A]MCLZ; test: Ca2+ reporter assay, Sm.TRPM[R943A]MCLZ mutant; format: cell-based, Schistosoma mansoni; details: binding pocket mutant
# [5] = test system: Sm.TRPM[H827A]MCLZ; test: Ca2+ reporter assay, Sm.TRPM[H827A]MCLZ mutant; format: cell-based, Schistosoma mansoni; details: binding pocket mutant
# [6] = test system: Sm.TRPM[Y864A]MCLZ; test: Ca2+ reporter assay, Sm.TRPM[Y864A]MCLZ mutant; format: cell-based, Schistosoma mansoni; details: S2 residue mutant
# [7] = test system: Sm.TRPM[Y1117A]MCLZ; test: Ca2+ reporter assay, Sm.TRPM[Y1117A]MCLZ mutant; format: cell-based, Schistosoma mansoni; details: binding pocket mutant
# [8] = test system: Sm.TRPM[H831A]MCLZ; test: Ca2+ reporter assay, Sm.TRPM[H831A]MCLZ mutant; format: cell-based, Schistosoma mansoni; details: binding pocket mutant
# [9] = test system: Sm.TRPMMCLZ [Y1038A]; format: cell-based, Schistosoma mansoni; details: 10 μM, cell-attached
# [10] = test system: Sm.TRPM[E868A]MCLZ; test: Ca2+ reporter assay, Sm.TRPM[E868A]MCLZ mutant; format: cell-based, Schistosoma mansoni; details: S2 residue mutant
# [11] = target: T1, Sm.TRPMMCLZ; test: Confocal Ca2+ imaging, HEK293 cells expressing Sm.TRPMMCLZ; format: cell-based; details: 10 μM
# [12] = test system: Sb.TRPM[H946Y]; test: Ca2+ reporter assay, Sb.TRPM[H946Y] mutant; format: cell-based, Schistosoma bovis; details: S4 point mutant
# [13] = test system: St.TRPMMCLZ; test: Ca2+ reporter assay, St.TRPMMCLZ; format: cell-based, Schistosoma turkestanicum; details: read-out: Activation of St.TRPMMCLZ, EC50
# [14] = test system: HEK293 cells expressing GFP alone; test: Cell-attached current recordings, HEK293 cells expressing GFP alone; format: cell-based; details: 10 μM
# [15] = test system: Sh.TRPM[H946Y]; test: Ca2+ reporter assay, Sh.TRPM[H946Y] mutant; format: cell-based, Schistosoma haematobium; details: S4 point mutant
# [16] = test system: St.TRPM[Y940H]MCLZ
# [17] = target: Sm.TRPMPZQ (Schistosoma mansoni, UniProt A0A5K4F0X5); test: Ca2+ reporter assay; format: cell-based
# [18] = target: Sj.TRPMMCLZ (Schistosoma japonicum, UniProt A0A4Z2D8Z3); test: Ca2+ reporter assay, Sj.TRPMMCLZ; format: cell-based
# Chain of Sj.TRPMMCLZ (A0A4Z2D8Z3 1-1377): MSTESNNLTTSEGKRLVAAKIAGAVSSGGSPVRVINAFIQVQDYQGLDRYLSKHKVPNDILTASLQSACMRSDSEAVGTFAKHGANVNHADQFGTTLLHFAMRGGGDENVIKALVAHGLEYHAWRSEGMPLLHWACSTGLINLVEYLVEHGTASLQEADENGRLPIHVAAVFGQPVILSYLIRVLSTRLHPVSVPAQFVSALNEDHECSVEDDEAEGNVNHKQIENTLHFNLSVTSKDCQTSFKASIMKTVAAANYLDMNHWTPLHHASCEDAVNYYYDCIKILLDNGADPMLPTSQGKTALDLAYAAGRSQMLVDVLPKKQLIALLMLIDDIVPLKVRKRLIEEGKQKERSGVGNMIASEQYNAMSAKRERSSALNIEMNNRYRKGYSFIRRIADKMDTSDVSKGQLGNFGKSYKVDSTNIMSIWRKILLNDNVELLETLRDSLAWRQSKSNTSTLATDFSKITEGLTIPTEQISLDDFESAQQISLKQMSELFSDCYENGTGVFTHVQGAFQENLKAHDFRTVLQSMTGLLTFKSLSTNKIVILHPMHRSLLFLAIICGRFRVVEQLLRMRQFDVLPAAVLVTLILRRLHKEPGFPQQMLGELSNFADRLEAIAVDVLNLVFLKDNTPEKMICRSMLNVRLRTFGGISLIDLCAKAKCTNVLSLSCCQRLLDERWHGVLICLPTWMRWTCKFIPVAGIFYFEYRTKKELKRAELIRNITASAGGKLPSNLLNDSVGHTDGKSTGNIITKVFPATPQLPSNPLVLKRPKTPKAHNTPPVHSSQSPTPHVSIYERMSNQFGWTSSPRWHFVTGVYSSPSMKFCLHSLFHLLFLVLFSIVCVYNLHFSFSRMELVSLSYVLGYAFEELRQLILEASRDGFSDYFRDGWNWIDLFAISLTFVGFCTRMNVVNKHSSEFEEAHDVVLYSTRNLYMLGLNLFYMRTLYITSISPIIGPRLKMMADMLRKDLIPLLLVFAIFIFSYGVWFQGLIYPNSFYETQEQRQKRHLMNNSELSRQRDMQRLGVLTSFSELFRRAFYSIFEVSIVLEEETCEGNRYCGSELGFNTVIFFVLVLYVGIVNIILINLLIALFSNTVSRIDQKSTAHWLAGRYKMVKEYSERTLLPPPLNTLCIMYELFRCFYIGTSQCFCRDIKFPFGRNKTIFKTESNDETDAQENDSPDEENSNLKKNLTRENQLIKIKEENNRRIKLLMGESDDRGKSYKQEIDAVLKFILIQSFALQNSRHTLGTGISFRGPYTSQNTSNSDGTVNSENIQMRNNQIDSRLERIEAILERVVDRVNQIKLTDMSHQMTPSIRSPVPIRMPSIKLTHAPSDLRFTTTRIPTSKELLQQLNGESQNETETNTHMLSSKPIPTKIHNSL
# [19] = test system: adult S. mansoni worms; test: Adult schistosome movement; format: cell-based, Schistosoma mansoni
# [20] = test system: Sm.TRPM[H946A]MCLZ; test: Ca2+ reporter assay, Sm.TRPM[H946A]MCLZ mutant; format: cell-based, Schistosoma mansoni; details: alanine mutant
# [21] = target: T1, Sm.TRPMMCLZ; test: Cell-attached current recordings, HEK293 cells expressing Sm.TRPMMCLZ and GFP; format: cell-based; details: 10 μM
# [22] = target: Sh.TRPMMCLZ (Schistosoma haematobium, UniProt A0A922LUV1); test: Ca2+ reporter assay, Sh.TRPMMCLZ; format: cell-based
# Chain of Sh.TRPMMCLZ (A0A922LUV1 1-1380): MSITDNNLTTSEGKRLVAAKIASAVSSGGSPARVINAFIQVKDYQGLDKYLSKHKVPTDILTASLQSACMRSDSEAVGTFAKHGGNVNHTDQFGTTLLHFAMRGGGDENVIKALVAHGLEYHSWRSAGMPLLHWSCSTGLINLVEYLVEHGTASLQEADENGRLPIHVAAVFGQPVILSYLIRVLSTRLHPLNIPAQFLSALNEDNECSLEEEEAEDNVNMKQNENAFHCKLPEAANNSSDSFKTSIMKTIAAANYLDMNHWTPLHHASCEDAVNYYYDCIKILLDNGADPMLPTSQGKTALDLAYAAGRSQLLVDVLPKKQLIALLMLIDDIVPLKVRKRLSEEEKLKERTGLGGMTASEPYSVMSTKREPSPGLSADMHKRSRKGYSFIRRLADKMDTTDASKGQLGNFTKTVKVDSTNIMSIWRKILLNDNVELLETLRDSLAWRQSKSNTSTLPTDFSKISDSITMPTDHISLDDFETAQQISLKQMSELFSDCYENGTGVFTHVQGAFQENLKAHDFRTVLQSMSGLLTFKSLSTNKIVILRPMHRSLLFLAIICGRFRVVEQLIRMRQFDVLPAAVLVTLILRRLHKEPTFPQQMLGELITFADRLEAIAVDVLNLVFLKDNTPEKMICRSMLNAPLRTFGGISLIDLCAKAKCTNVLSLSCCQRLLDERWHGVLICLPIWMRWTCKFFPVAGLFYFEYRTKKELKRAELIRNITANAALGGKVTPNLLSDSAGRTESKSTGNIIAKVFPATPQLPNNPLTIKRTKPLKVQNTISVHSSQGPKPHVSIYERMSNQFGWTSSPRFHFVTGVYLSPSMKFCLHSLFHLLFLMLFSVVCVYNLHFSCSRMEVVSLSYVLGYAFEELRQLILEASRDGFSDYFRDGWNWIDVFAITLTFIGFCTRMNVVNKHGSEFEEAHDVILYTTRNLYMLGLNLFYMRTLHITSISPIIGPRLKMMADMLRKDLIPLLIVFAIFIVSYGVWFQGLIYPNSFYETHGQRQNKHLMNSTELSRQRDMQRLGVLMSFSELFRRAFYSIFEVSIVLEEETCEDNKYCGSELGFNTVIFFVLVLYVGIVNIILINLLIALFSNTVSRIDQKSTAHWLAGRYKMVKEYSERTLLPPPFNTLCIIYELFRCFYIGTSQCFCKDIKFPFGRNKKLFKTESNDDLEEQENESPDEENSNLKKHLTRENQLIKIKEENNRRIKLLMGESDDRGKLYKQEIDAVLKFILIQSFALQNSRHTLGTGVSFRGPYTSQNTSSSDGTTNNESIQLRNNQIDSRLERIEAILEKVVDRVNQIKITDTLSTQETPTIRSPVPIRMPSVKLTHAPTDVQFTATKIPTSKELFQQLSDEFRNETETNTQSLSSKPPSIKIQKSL
# [23] = test system: S. japonicum worms; details: cited from earlier work
# [24] = target: Sb.TRPMMCLZ (Schistosoma bovis, UniProt A0A430Q971); test: Ca2+ reporter assay, Sb.TRPMMCLZ; format: cell-based
# Chain of Sb.TRPMMCLZ (A0A430Q971 1-1241): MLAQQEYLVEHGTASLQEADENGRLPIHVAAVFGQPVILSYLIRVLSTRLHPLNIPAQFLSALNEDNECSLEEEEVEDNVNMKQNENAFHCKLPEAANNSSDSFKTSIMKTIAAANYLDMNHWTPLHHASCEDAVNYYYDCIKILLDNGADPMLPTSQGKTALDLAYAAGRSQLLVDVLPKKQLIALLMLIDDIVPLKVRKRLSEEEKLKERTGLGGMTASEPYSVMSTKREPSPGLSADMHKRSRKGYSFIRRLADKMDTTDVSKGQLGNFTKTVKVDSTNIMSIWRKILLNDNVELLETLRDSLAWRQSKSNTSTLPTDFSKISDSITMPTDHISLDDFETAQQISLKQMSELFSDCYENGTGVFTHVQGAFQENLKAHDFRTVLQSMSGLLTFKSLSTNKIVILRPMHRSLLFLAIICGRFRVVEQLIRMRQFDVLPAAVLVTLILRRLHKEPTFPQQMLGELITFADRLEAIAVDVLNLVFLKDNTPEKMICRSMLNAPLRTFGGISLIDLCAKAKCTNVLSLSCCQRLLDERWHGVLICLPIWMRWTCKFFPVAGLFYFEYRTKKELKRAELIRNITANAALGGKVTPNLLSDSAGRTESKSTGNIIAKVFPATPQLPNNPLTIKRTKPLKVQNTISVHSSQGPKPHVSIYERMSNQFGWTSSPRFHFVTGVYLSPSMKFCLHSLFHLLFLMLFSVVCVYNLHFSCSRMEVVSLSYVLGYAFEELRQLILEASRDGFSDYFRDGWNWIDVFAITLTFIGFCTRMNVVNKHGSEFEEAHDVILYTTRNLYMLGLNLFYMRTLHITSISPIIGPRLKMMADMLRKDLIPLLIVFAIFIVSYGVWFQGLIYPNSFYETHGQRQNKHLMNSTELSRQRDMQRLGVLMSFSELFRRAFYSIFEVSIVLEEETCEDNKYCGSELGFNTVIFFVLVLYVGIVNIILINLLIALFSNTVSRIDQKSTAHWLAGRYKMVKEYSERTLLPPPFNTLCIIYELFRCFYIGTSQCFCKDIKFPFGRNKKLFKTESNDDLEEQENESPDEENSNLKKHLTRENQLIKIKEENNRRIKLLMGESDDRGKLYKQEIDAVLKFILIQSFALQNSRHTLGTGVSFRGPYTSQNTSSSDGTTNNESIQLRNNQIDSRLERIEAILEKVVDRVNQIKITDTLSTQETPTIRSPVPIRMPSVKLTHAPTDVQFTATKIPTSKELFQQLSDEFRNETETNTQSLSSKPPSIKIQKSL
# [25] = test system: adult S. mansoni worms; details: cited from earlier work
# [26] = test system: S. mansoni male worms; test: Acute contraction of S. mansoni male worms by benzodiazepines; format: cell-based, Schistosoma mansoni; details: 3 μM, 20 min
# [27] = preliminary clinical evaluation
compound,measurement,setting,value
"O=C(C1CCCCC1)N1CC(=O)N2CCc3ccccc3C2C1 (racemic) [(±)-PZQ, praziquantel]",Efficacy against juvenile / immature worms,[1],poorly effective against immature worms
same,Cure rates,[2]; at clinical dosing,60–90%
same,Agonist activity at Sm.TRPMMCLZ (concentration-response),"[3]; HEK293 cells, cytoplasmic Ca2+",did not activate
same,Antagonism of (S)-MCLZ activation of Sm.TRPMMCLZ,[3]; competition versus (S)-MCLZ (1 μM),failed to inhibit
CC1CCC(C(C)C)C(O)C1 (stereo not drawn) [menthol],Activator screen at Sm.TRPMMCLZ,[3],inactive
NCCc1ccc(O)c(O)c1 [dopamine],Activator screen at Sm.TRPMMCLZ,[3],inactive
C[N+](C)(C)CCOC(N)=O [carbachol],Activator screen at Sm.TRPMMCLZ,[3],inactive
NCCc1c[nH]c2ccc(O)cc12 [5-hydroxytryptamine],Activator screen at Sm.TRPMMCLZ,[3],inactive
"C[C@@H]1N=C(c2ccccc2Cl)c2cc([N+](=O)[O-])ccc2NC1=O [(S)-MCLZ, (S)-meclonazepam]",Activation of Sm.TRPM[R943A]MCLZ,[4],little activation
same,Activation of Sm.TRPM[H827A]MCLZ,[5],resembled the wildtype channel
same,Activation of Sm.TRPM[Y864A]MCLZ (effect of mutation),[6],much less of an effect
same,Activation of Sm.TRPM[Y1117A]MCLZ,[7],little activation
same,Efficacy against juvenile / immature worms,[1],displays efficacy against juvenile worms
same,Activation of Sm.TRPM[H831A]MCLZ,[8],little activation
same,Clinical outcome of infection,[2]; [27],cured S. mansoni and S. haematobium infections
same,Side effects in subjects,[2]; [27],"dose-dependent drowsiness, dizziness, slurred speech, ataxia, reduced mental alertness, muscle weakness, hypotension, and bradycardia"
same,Current response in pore mutant Sm.TRPMMCLZ [Y1038A],[9],strongly attenuated
same,Activation of Sm.TRPM[E868A]MCLZ (effect of mutation),[10],much less of an effect
same,Ca2+ signals by confocal imaging in cells expressing Sm.TRPMMCLZ,[11],sustained Ca^2+ transients
same,Sensitivity of Sb.TRPM[H946Y] relative to wildtype,[12],lower sensitivity of response
same,EC50,[13],> 50000 nM
same,Cells with evoked currents,[14],0/10
same,Sensitivity of Sh.TRPM[H946Y] relative to wildtype,[15],lower sensitivity of response
same,EC50,[16],800 ± 200 nM
same,Agonist activity at Sm.TRPMPZQ (concentration-response),"[17]; HEK293 cells, 1 nM to 100 μM",did not activate
same,Antagonism of PZQ activation of Sm.TRPMPZQ,"[17]; competition versus (±)-PZQ (0.6 μM), high concentrations (>30 μM)",partially attenuated
same,EC50,[18],> 50000 nM
same,Effect on worm movement (paralysis),"[19]; 1 μM, adult S. mansoni worms, images 1 min after addition","rapid, spastic paralysis"
same,IC50,"[19]; Schistosoma mansoni, read-out: Inhibition of motility, IC50",1540 ± 90 nM
same,EC50,"[3]; Activation of Sm.TRPMMCLZ, EC50, HEK293 cells, cytoplasmic Ca2+ (Fluo-4)",1100 nM and ~1000 nM
same,Potency at Sm.TRPM[H946A]MCLZ relative to wildtype,[20],slightly increased potency
same,Cells with evoked inward current,[21]; holding potential of 60 mV as printed,17/21
same,Reversal potential of current-voltage relationship,"[21]; voltage ramp, I-V linear",~0 mV
same,EC50,[22],1400 ± 400 nM
same,Activity against S. japonicum worms,[23],poorly active
same,EC50,[24],1300 ± 300 nM
same,Damage to the worm tegument,[25],pronounced damage to the worm tegument
same,Time to spastic paralysis of adult S. mansoni worms,[25],< 1 min
same,IC50,"[25]; read-out: Sensitivity of schistosome worms, IC50",2000 to 3000 nM
O=C1NC(c2cccc([N+](=O)[O-])c2)=CCN1c1ccccc1O [icilin],Activator screen at Sm.TRPMMCLZ,[3],inactive
COc1ccc(CCN(C)CCCC(C#N)(c2cc(OC)c(OC)c(OC)c2)C(C)C)cc1OC (stereo not drawn) [methoxyverapamil],Antagonism of (S)-MCLZ (1 μM) action at Sm.TRPMMCLZ,[3],weakly antagonized
C=CCN=C=S [allyl isothiocyanate],Activator screen at Sm.TRPMMCLZ,[3],inactive
COC(=O)C1=C(C)NC(C)=C(C(=O)OC)C1c1ccccc1[N+](=O)[O-] [nifedipine],Antagonism of (S)-MCLZ (1 μM) action at Sm.TRPMMCLZ,[3],weakly antagonized; also recorded: weakly attenuated
O=C(O)CN(CCOCCOCCN(CC(=O)O)CC(=O)O)CC(=O)O [EGTA],Effect of chelation of extracellular Ca2+ on the (S)-MCLZ-evoked Ca2+ signal,"[3]; EGTA 1 mM in Ca2+-free HBSS, (S)-MCLZ 100 μM",abolished
CN1C(=O)CN=C(c2ccccc2)c2cc(Cl)ccc21 [diazepam],Acute contraction / paralysis of S. mansoni male worms,[26],did not evoke worm contraction
